PubChem BioAssay (NCI)
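Interpolation was linear, between the two tested concentrations surrounding the appropriate level; five concentrations were tested over 48 hours in 96-well plates. GI50 = concentration required for 50% inhibition of growth. Definition used: TGI = concentration required for complete inhibition of growth.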

What was measured:
Experiment in all cases: growth of human tumour cells (NCI), 48 h
786-0 renal = test system: 786-0 renal
A498 renal = test system: A498 renal
A549 NSCLC = test system: A549 NSCLC
ACHN renal = test system: ACHN renal
BT-549 breast = test system: BT-549 breast
CAKI-1 renal = test system: CAKI-1 renal
CCRF-CEM leukemia = test system: CCRF-CEM leukemia
COLO 205 colon = test system: COLO 205 colon
DU-145 prostate = test system: DU-145 prostate
HCC-2998 colon = test system: HCC-2998 colon
HCT-116 colon = test system: HCT-116 colon
HCT-15 colon = test system: HCT-15 colon
HL-60(TB) leukemia = test system: HL-60(TB) leukemia
HOP-62 NSCLC = test system: HOP-62 NSCLC
HOP-92 NSCLC = test system: HOP-92 NSCLC
HS 578T breast = test system: HS 578T breast
HT29 colon = test system: HT29 colon
IGROV1 ovarian = test system: IGROV1 ovarian
K-562 leukemia = test system: K-562 leukemia
KM12 colon = test system: KM12 colon
LOX IMVI melanoma = test system: LOX IMVI melanoma
M14 melanoma = test system: M14 melanoma
MALME-3M melanoma = test system: MALME-3M melanoma
MCF7 breast = test system: MCF7 breast
MDA-MB-231 breast = test system: MDA-MB-231 breast
MDA-MB-435 = test system: MDA-MB-435
MOLT-4 leukemia = test system: MOLT-4 leukemia
NCI-H226 lung = test system: NCI-H226 lung
NCI-H23 lung = test system: NCI-H23 lung
NCI-H460 lung = test system: NCI-H460 lung
NCI-H522 lung = test system: NCI-H522 lung
NCI/ADR-RES ovarian = test system: NCI/ADR-RES ovarian
OVCAR-3 ovarian = test system: OVCAR-3 ovarian
OVCAR-4 ovarian = test system: OVCAR-4 ovarian
OVCAR-5 ovarian = test system: OVCAR-5 ovarian
OVCAR-8 ovarian = test system: OVCAR-8 ovarian
PC-3 prostate = test system: PC-3 prostate
RPMI-8226 leukemia = test system: RPMI-8226 leukemia
RXF 393 renal = test system: RXF 393 renal
SF-268 CNS = test system: SF-268 CNS
SF-295 CNS = test system: SF-295 CNS
SF-539 CNS = test system: SF-539 CNS
SK-MEL-2 melanoma = test system: SK-MEL-2 melanoma
SK-MEL-28 melanoma = test system: SK-MEL-28 melanoma
SK-MEL-5 melanoma = test system: SK-MEL-5 melanoma
SK-OV-3 ovarian = test system: SK-OV-3 ovarian
SN12C renal = test system: SN12C renal
SNB-19 CNS = test system: SNB-19 CNS
SNB-75 CNS = test system: SNB-75 CNS
SR leukemia = test system: SR leukemia
SW-620 colon = test system: SW-620 colon
T-47D breast = test system: T-47D breast
TK-10 renal = test system: TK-10 renal
U251 CNS = test system: U251 CNS
UACC-257 melanoma = test system: UACC-257 melanoma
UACC-62 melanoma = test system: UACC-62 melanoma
UO-31 renal = test system: UO-31 renal

Q: With O=C1/C(=C\c2ccc(F)cc2)CN(C(=O)c2ccccc2F)C/C1=C\c1ccc(F)cc1 as the compound, how does the GI50 (786-0 renal) read?
A: 1610 nM

Q: And the TGI (786-0 renal)?
A: 3170 nM

Q: What about the GI50 (A498 renal) of the same compound?
A: 2020 nM

Q: What about the TGI (A498 renal) of the same compound?
A: 6710 nM

Q: What about the GI50 (A549 NSCLC) of the same compound?
A: 2590 nM

Q: What about the TGI (A549 NSCLC) of the same compound?
A: 8750 nM

Q: And the GI50 (ACHN renal)?
A: 1610 nM

Q: And the TGI (ACHN renal)?
A: 3600 nM

Q: What about the GI50 (BT-549 breast) of the same compound?
A: 1850 nM

Q: What about the TGI (BT-549 breast) of the same compound?
A: 3410 nM

Q: And the GI50 (CAKI-1 renal)?
A: 2650 nM

Q: And the TGI (CAKI-1 renal)?
A: 9160 nM

Q: What about the GI50 (CCRF-CEM leukemia) of the same compound?
A: 736 nM

Q: And the TGI (CCRF-CEM leukemia)?
A: 4970 nM

Q: And the GI50 (COLO 205 colon)?
A: 1860 nM

Q: What about the TGI (COLO 205 colon) of the same compound?
A: 3540 nM

Q: What about the GI50 (DU-145 prostate) of the same compound?
A: 2070 nM

Q: And the TGI (DU-145 prostate)?
A: 4150 nM

Q: What about the GI50 (HCC-2998 colon) of the same compound?
A: 1810 nM

Q: What about the TGI (HCC-2998 colon) of the same compound?
A: 3320 nM

Q: What about the GI50 (HCT-116 colon) of the same compound?
A: 228 nM

Q: What about the TGI (HCT-116 colon) of the same compound?
A: 571 nM

Q: What about the GI50 (HCT-15 colon) of the same compound?
A: 1050 nM

Q: What about the TGI (HCT-15 colon) of the same compound?
A: 2580 nM

Q: And the GI50 (HL-60(TB) leukemia)?
A: 1110 nM

Q: And the TGI (HL-60(TB) leukemia)?
A: 4570 nM

Q: What about the GI50 (HOP-62 NSCLC) of the same compound?
A: 2040 nM

Q: And the TGI (HOP-62 NSCLC)?
A: 4660 nM

Q: And the GI50 (HOP-92 NSCLC)?
A: 1860 nM

Q: What about the TGI (HOP-92 NSCLC) of the same compound?
A: 5630 nM

Q: What about the GI50 (HS 578T breast) of the same compound?
A: 3660 nM

Q: And the TGI (HS 578T breast)?
A: 20300 nM

Q: What about the GI50 (HT29 colon) of the same compound?
A: 373 nM

Q: And the TGI (HT29 colon)?
A: 1350 nM

Q: What about the GI50 (IGROV1 ovarian) of the same compound?
A: 1820 nM

Q: And the TGI (IGROV1 ovarian)?
A: 3620 nM

Q: What about the GI50 (K-562 leukemia) of the same compound?
A: 414 nM

Q: And the GI50 (KM12 colon)?
A: 371 nM

Q: What about the TGI (KM12 colon) of the same compound?
A: 1320 nM

Q: What about the GI50 (LOX IMVI melanoma) of the same compound?
A: 280 nM

Q: And the TGI (LOX IMVI melanoma)?
A: 957 nM

Q: What about the GI50 (M14 melanoma) of the same compound?
A: 1510 nM

Q: And the TGI (M14 melanoma)?
A: 3440 nM

Q: What about the GI50 (MALME-3M melanoma) of the same compound?
A: 2000 nM

Q: What about the TGI (MALME-3M melanoma) of the same compound?
A: 4090 nM

Q: What about the GI50 (MCF7 breast) of the same compound?
A: 436 nM

Q: And the TGI (MCF7 breast)?
A: 1680 nM

Q: And the GI50 (MDA-MB-231 breast)?
A: 1830 nM

Q: And the TGI (MDA-MB-231 breast)?
A: 3950 nM

Q: What about the GI50 (MDA-MB-435) of the same compound?
A: 547 nM

Q: And the TGI (MDA-MB-435)?
A: 2060 nM

Q: And the GI50 (MOLT-4 leukemia)?
A: 1720 nM

Q: What about the TGI (MOLT-4 leukemia) of the same compound?
A: 7490 nM

Q: What about the GI50 (NCI-H226 lung) of the same compound?
A: 3410 nM

Q: What about the TGI (NCI-H226 lung) of the same compound?
A: 12800 nM

Q: And the GI50 (NCI-H23 lung)?
A: 2090 nM

Q: And the TGI (NCI-H23 lung)?
A: 4910 nM

Q: What about the GI50 (NCI-H460 lung) of the same compound?
A: 2510 nM

Q: And the TGI (NCI-H460 lung)?
A: 6710 nM

Q: What about the GI50 (NCI-H522 lung) of the same compound?
A: 1610 nM

Q: What about the TGI (NCI-H522 lung) of the same compound?
A: 3150 nM

Q: And the GI50 (NCI/ADR-RES ovarian)?
A: 2800 nM

Q: What about the TGI (NCI/ADR-RES ovarian) of the same compound?
A: 16400 nM

Q: What about the GI50 (OVCAR-3 ovarian) of the same compound?
A: 1670 nM

Q: And the TGI (OVCAR-3 ovarian)?
A: 3110 nM

Q: And the GI50 (OVCAR-4 ovarian)?
A: 2330 nM

Q: What about the TGI (OVCAR-4 ovarian) of the same compound?
A: 6530 nM

Q: What about the GI50 (OVCAR-5 ovarian) of the same compound?
A: 1880 nM

Q: What about the TGI (OVCAR-5 ovarian) of the same compound?
A: 4040 nM

Q: What about the GI50 (OVCAR-8 ovarian) of the same compound?
A: 1720 nM

Q: And the TGI (OVCAR-8 ovarian)?
A: 5140 nM

Q: What about the GI50 (PC-3 prostate) of the same compound?
A: 1620 nM

Q: What about the TGI (PC-3 prostate) of the same compound?
A: 4890 nM

Q: What about the GI50 (RPMI-8226 leukemia) of the same compound?
A: 137 nM

Q: What about the TGI (RPMI-8226 leukemia) of the same compound?
A: 817 nM

Q: What about the GI50 (RXF 393 renal) of the same compound?
A: 1780 nM

Q: And the TGI (RXF 393 renal)?
A: 3540 nM

Q: What about the GI50 (SF-268 CNS) of the same compound?
A: 2020 nM

Q: And the TGI (SF-268 CNS)?
A: 4970 nM

Q: And the GI50 (SF-295 CNS)?
A: 2080 nM

Q: What about the TGI (SF-295 CNS) of the same compound?
A: 5020 nM

Q: What about the GI50 (SF-539 CNS) of the same compound?
A: 1720 nM

Q: What about the TGI (SF-539 CNS) of the same compound?
A: 3200 nM

Q: What about the GI50 (SK-MEL-2 melanoma) of the same compound?
A: 2040 nM

Q: What about the TGI (SK-MEL-2 melanoma) of the same compound?
A: 4610 nM

Q: What about the GI50 (SK-MEL-28 melanoma) of the same compound?
A: 1820 nM

Q: What about the TGI (SK-MEL-28 melanoma) of the same compound?
A: 3360 nM

Q: And the GI50 (SK-MEL-5 melanoma)?
A: 1450 nM

Q: And the TGI (SK-MEL-5 melanoma)?
A: 2830 nM

Q: And the GI50 (SK-OV-3 ovarian)?
A: 2230 nM

Q: What about the TGI (SK-OV-3 ovarian) of the same compound?
A: 4690 nM

Q: What about the GI50 (SN12C renal) of the same compound?
A: 1680 nM

Q: And the TGI (SN12C renal)?
A: 3370 nM

Q: What about the GI50 (SNB-19 CNS) of the same compound?
A: 1580 nM

Q: What about the TGI (SNB-19 CNS) of the same compound?
A: 3550 nM

Q: And the GI50 (SNB-75 CNS)?
A: 2640 nM

Q: And the TGI (SNB-75 CNS)?
A: 10900 nM

Q: What about the GI50 (SR leukemia) of the same compound?
A: 320 nM

Q: What about the TGI (SR leukemia) of the same compound?
A: 3030 nM

Q: And the GI50 (SW-620 colon)?
A: 428 nM

Q: And the TGI (SW-620 colon)?
A: 1730 nM

Q: And the GI50 (T-47D breast)?
A: 2280 nM

Q: And the TGI (T-47D breast)?
A: 7020 nM

Q: And the GI50 (TK-10 renal)?
A: 1970 nM

Q: And the TGI (TK-10 renal)?
A: 4270 nM

Q: And the GI50 (U251 CNS)?
A: 1270 nM

Q: What about the TGI (U251 CNS) of the same compound?
A: 2580 nM

Q: And the GI50 (UACC-257 melanoma)?
A: 1710 nM

Q: What about the TGI (UACC-257 melanoma) of the same compound?
A: 3470 nM

Q: What about the GI50 (UACC-62 melanoma) of the same compound?
A: 1460 nM

Q: And the TGI (UACC-62 melanoma)?
A: 3050 nM

Q: What about the GI50 (UO-31 renal) of the same compound?
A: 1490 nM

Q: What about the TGI (UO-31 renal) of the same compound?
A: 2940 nM
